Data published in the OPERA property sets (Mansouri et al. 2018).
Peptide text beside a SMILES is read from it.

SMILES	logP
OCc1ccc2cccnc2c1	1.29
CCCCOP(=O)(OCCCC)Oc1ccccc1	4.27
CNC(=O)Oc1cccc(C(C)(C)C)c1	2.93
CC(C)c1ccccc1OC(=O)c1ccc(N)cc1O	4.28
COc1ccc2c(c1)OC(C)(C)C=C2	3.35
Nc1ncnc2[nH]cnc12	-0.09
CCCC(=NOCC)C1C(=O)CC2(CCCCC2C)OC1=O (centres undefined)	3.9
CC(=O)c1ccco1	0.52
CC(C)NC(C)C	1.4
CC[C@H](C)C(=O)O[C@H]1C[C@H](O)C=C2C=C[C@H](C)[C@H](CC[C@@H]3C[C@@H](O)CC(=O)O3)[C@H]21	2.42
CC(=O)Oc1cccc(Cl)c1	2.32
OCC=Cc1ccccc1	1.95
CC(C)=NOCCOC(=O)[C@@H](C)Oc1ccc(Oc2cnc3cc(Cl)ccc3n2)cc1	4.6
c1ccc2c(c1)ccc1ncccc12	3.43
CCOS(=O)(=O)OCC	1.14
CCCCCCCCOC(=O)n1cnc(CC(NC(=O)C2CCC(=O)N2)C(=O)N2CCCC2C(N)=O)c1 (centres undefined)	1.82
O=C1CC(Sc2ccccn2)N1 (centres undefined)	0.61
OCCNCCO	-1.43
O=C(Nc1ccc([N+](=O)[O-])cc1)c1cccnc1	1.82
N#CC(=Cc1ccccc1)C(N)=O	1.56
CC1=CC(=O)c2ccccc2C1=O	2.2
Clc1ccccc1-c1c(Cl)cccc1Cl	5.48
O=NN1CCCCCC1	0.92
COc1ccc(N)cc1	0.95

SMILES	logP
CCN(CC)N=O	0.48
COc1cc(Cl)c(Nc2ccccc2CC(=O)O)c(Cl)c1	4.44
Oc1cccc(O)c1	0.8
CCSC	1.54
ICCCc1ccccc1	3.9
CCc1cccc(N2C(=O)CCC2=O)c1	1.04
Nc1ccc(CCO)cc1	0.1
CC(=O)NC(Cc1c[nH]c2ccccc12)C(=O)NCC(=O)NC(Cc1ccccc1)C(N)=O (stereo not drawn) (Ac-Trp-Gly-Phe-NH2; configuration not given here)	0.99
Clc1ccc(Cl)c(Cl)n1	2.77
CC(C)(C)N(CC(O)COc1ccccc1)CC(O)COc1ccccc1 (centres undefined)	3.99
CC1(C)N=C(N)N=C(N)N1c1ccc(F)cc1	0.37
CC#CC	1.46
CC(=O)N(C)c1ccc(O)cc1	0.61
CCC(=O)C(CS(=O)(=O)c1ccccc1)c1ccc(OC)cc1 (centres undefined)	2.18
CN(C)CC(O)c1ccccc1 (centres undefined)	1.54
CCCCCCOC(=O)c1ccc(O)cc1	4.35
CC(=O)Oc1ccccc1Cl	2.18
CN(C)C(N(C)C)=S(I)c1ccc(Cl)c(Cl)c1 (centres undefined)	0.49
CCC(C)NC(=O)C=Cc1ccccc1 (centres undefined)	2.85
O=C(O)c1cc2ccccc2o1	2.41
Nc1cc(N=O)ccc1O	0.03
COc1ccc(C=O)cc1O	0.97
CCN(CC)C(C)CN1c2ccccc2Sc2ccccc21 (centres undefined)	4.77
Oc1ccc(Cl)c(Cl)c1	3.33

SMILES	logP
CS(=O)(=O)c1cccc(-c2nc(N)nc(N)n2)c1	0.29
CON(C)C(=O)Nc1ccc(C(C)=O)cc1	1.22
C=O	0.35
Nc1ccccc1SSc1ccccc1N	3.05
CN(C)C(=O)C12CC3CC(CC(C3)C1)C2	2.55
CNC(=O)c1[nH]nc(C)c1[N+](=O)[O-]	-0.23
COc1cc(OC)cc(C(=O)O)c1	2.19
CCOC=O	0.23
C#CCC(O)(c1ccc(F)cc1)c1cccnc1 (centres undefined)	1.78
Oc1cc(O)cc(O)c1	0.16
C=C(F)F	1.24
CCCCOCCOCCO	0.56
CC1=CC(=O)C=C(C)C1=O	1.22
CNC(=O)c1ccccc1	0.86
ClCCc1ccccc1	2.95
CNC(=O)C=Cc1ccccc1	1.81
CCOP(=S)(OCC)SCn1c(=O)oc2cc(Cl)ccc21	4.38
COc1ccc2cc(C(C)C(=O)OCC(=O)N(CCO)CCO)ccc2c1 (centres undefined)	1.7
Oc1c(F)cc(Cn2cc[nH]c2=S)cc1F	1.08
CC(C)(C)NC[C@H](O)COc1nsnc1N1CCOCC1	1.83
CCCS(=O)(=O)CCn1c([N+](=O)[O-])cnc1C	0.23
O=S(=O)(Nc1ccccc1)C(F)F	1.95
CNCCNC	-0.62
CC(C)c1ccc(OC(=O)c2ccc(N)cc2O)cc1	4.12

SMILES	logP
O=Nc1ccccc1	2.01
CCCOC(=O)c1cccnc1	1.94
O=[N+]([O-])c1cccc(I)c1	2.94
CCOC(=O)n1cnc(CC(NC(=O)C2CCC(=O)N2)C(=O)N2CCCC2C(N)=O)c1 (centres undefined)	-1.3
CCCCCN	1.49
CCCCCNc1nc(NC(C)C)nc(SC(F)F)n1	5.2
CCCCC(C)(C)c1ccc(C2CCCC(O)C2)c(O)c1 (centres undefined)	5.43
FC(F)(F)c1ccc2cccnc2c1	3.02
OCC=CCO	-0.81
CN(C)C(N(C)C)=S(I)c1cc(Cl)c(Cl)cc1Cl (centres undefined)	0.68
COC(=O)CCC(=O)OC	0.35
CSc1cccc(NC(N)=O)c1	1.57
CC(=O)N[C@H](C(=O)N[C@H](C(N)=O)C(C)C)[C@@H](C)O (Ac-Thr-Val-NH2)	-1.25
CCCCCC(C)=O	1.98
CC(C)CO	0.76
O=[N+]([O-])c1ccccn1	0.48
CC(=O)c1cc2ccccc2nn1	1.44
NS(=O)(=O)c1cccnc1	-0.49
CC(=O)N(C)c1ccccc1	1.12
NC(=O)c1ccccc1N	0.35
CCOP(=S)(OCC)Oc1cc(C)nc(C(C)C)n1	3.81
CON(C)C(=O)Nc1ccc(F)cc1	1.46
c1ccc2c(c1)Oc1ccccc1S2	4.54
CCCCn1cnc2c(NC(C)=O)ncnc21	0.55

SMILES	logP
CCCCCC(C)(C)c1ccc(C2CCCC(O)C2)c(O)c1 (centres undefined)	5.97
COC1C(OC(C)=O)CC(=O)OC(C)CC=CC=CC(O)C(C)CC(CC=O)C1OC1OC(C)C(OC2CC(C)(O)C(OC(=O)CC(C)C)C(C)O2)C(N(C)C)C1O (centres undefined)	2.39
Nc1ccc(S(=O)(=O)c2ccc(F)cc2)cc1	2.17
CN(C)CCNC(=O)c1ccccc1	1.1
CC(C)C[N+](=O)[O-]	1.4
CC(=O)Nc1ccc(O)c(C(C)(C)C)c1	2.36
CC(C)(C)OC(N)=O	0.48
COCC(=O)N(c1c(C)cccc1C)C(C)C(=O)OC (centres undefined)	1.65
C1CNCCN1	-1.5
COC(=O)c1cc(O)c(O)c(O)c1	0.86
CC12CCC(=O)C=C1CCC1C2C(O)CC2(C)C1CCC2(O)C(=O)COC(=O)CCC(N)=O (centres undefined)	1.43
O=[N+]([O-])c1ccc2cccnc2c1	1.82
CC(=O)Nc1ccccc1C	0.85
CCCCCCCI	4.7
N#C/C=C/C#N	-0.25
CCOC(N)=O	-0.15
O=[N+]([O-])c1nccn1CC(O)CN1CCCCC1 (centres undefined)	1
O=C1NC(=O)C(c2ccccc2)(c2ccccc2)N1	2.47
O=C(CNC(=O)c1ccccc1)Oc1ccccc1	2.31
CN(C)C(=O)Nc1ccc([N+](=O)[O-])cc1	1.51
Cc1cccc(C)c1	3.2
Cn1c(=O)ccc2ccccc21	1.45
ClC(Cl)(Cl)C(c1ccccc1)c1ccccc1	4.87
